A value given as a limit tells only on which side of the number the result lay.

Holding throughout (format): biochemical
The target in test [1] is T1, wild type (wt) alpha-galactosidase (Homo sapiens, UniProt P06280).
T1 construct: The lysates were used as a source for wild type (wt) alpha-galactosidase; endogenous in cells; host or cells: HL60 (ECACC No. 98070106) lysate
T1 sequence (P06280 32-429): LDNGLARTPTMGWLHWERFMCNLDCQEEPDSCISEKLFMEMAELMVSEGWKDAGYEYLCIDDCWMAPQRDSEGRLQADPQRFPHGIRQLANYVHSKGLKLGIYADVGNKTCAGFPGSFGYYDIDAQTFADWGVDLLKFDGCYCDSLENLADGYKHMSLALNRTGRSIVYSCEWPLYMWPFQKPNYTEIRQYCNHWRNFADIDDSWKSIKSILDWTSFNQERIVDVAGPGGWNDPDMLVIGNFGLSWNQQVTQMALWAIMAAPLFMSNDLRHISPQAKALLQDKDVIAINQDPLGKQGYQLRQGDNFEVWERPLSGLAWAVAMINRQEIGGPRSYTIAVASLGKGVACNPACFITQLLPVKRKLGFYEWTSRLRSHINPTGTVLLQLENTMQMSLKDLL
Put plainly: alpha-galactosidase activity assay in HL60 lysate (4MU-α-D-gal). To be noted: at a concentration of 100 uM, 0.5 mM 4MU-α-D-gal, pH 4.5.

In test [2] the target is T2, wild type (wt) beta-glucocerebrosidase (Homo sapiens, UniProt P04062).
T2 construct: The lysates were used as a source for wild type (wt) beta-glucocerebrosidase; endogenous in cells; host or cells: HL60 (ECACC No. 98070106) lysate
T2 sequence (P04062 40-536): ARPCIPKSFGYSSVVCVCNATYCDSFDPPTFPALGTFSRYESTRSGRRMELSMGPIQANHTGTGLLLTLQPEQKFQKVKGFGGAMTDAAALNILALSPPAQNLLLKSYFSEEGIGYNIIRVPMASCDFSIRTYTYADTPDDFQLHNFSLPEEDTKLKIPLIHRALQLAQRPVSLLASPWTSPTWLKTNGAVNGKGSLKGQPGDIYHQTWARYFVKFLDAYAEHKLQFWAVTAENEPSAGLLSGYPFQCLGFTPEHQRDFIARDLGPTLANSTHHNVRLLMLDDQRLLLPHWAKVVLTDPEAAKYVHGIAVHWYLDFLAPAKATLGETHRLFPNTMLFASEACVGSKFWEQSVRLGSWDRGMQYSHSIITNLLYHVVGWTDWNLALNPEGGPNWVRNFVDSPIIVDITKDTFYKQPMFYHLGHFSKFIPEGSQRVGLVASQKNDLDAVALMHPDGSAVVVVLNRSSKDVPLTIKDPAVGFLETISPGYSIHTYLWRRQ
As to the kind of experiment: beta-glucocerebrosidase activity assay in HL60 lysate (4MU-β-D-glc).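 Further: fluorometric read-out of 4MU liberated from the substrate (ex 360 nm, em 450 nm) after 37 °C incubation, reaction stopped with sodium carbonate.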 The following applies: at a concentration of 100 μM, 0.5 mM 4MU-β-D-glc.

Test [3] concerns α-D-glucosidase (Bacillus sterothermophilus). Put plainly: glycosidase assay with p-nitrophenyl substrates (Example 2). The following applies: 10 μl of 5 mM iminosugar solution in 70 μl incubation mixture; 20° C. How it is done:
(§1) The assays were conducted as described by Watson et al. 1997, Phytochemistry 46: 255-259 using p-nitrophenyl-substrates. Assays were carried out in microtitre plates. Enzymes were assayed in 0.1M citric acid/0.2M di-sodium hydrogen phosphate (Mcllvaine) buffers at the optimum pH for the enzyme. All assays were carried out at 20° C. All enzymes and substrates were purchased from Sigma Aldrich Chemicals Limited. The incubation mixture consisted of 10 μl of enzyme solution, 10 μl of the iminosugars solution (made up in deionised water at 5 mM) and 50 μl of the appropriate 5 mM p-nitrophenyl substrate made up in McIlvaine buffer at the optimum pH for the enzyme. The reactions were stopped with 0.4M glycine (pH 10.4) during the exponential phase of the reaction, which was determined at the beginning of the assay using blanks with water, which were incubated for a range of time periods to measure the reaction rate using 5 mM substrate solution. Absorbances were read at 405 nm. Water was substituted for the inhibitors in the blanks.
(§2) The glycosidases used were α-D-glucosidase (yeast), α-D-glucosidase (Bacillus sterothermophilus), α-D-glucosidase (rice), amyloglucosidase (Aspergillus niger), β-D-glucosidase (almond), α-D-galactosidase (green coffee beans), β-D-galactosidase (bovine liver), α-L-fucosidase (bovine kidney), α-D-mannosidase (Jack bean), β-D-mannosidase (Cellullomonas fimi), Naringinase (Penicillium decumbens), N-acetyl-β-D-glucosaminidase (Bovine kidney), N-acetyl-β-D-glucosaminidase (Aspergillus oryzae) and N-acetyl-β-D-glucosaminidase (Jack bean)

In test [4] the target is T3, α-D-galactosidase (green coffee beans) (Coffea arabica, UniProt Q42656).
T3 construct: purchased Sigma Aldrich Chemicals Limited
T3 sequence (Q42656 16-378): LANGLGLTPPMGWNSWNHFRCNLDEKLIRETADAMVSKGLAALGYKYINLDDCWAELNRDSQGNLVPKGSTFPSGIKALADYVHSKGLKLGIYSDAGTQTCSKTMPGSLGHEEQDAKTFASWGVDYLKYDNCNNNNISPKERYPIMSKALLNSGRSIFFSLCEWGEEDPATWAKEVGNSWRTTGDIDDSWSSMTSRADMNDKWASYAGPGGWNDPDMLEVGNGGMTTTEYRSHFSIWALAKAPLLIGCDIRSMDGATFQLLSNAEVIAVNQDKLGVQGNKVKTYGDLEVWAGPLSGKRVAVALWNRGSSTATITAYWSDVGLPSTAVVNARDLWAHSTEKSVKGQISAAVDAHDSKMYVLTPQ
Described as above. To be noted: 10 μl of 5 mM iminosugar solution in 70 μl incubation mixture; 20° C.; read-out: Promotion of glycosidase activity: α-D-galactosidase (Green coffee bean). How it is done: as §1, §2

The target of test [5] is T4, wild type (wt) lysosomal alpha-glucosidase (Homo sapiens, UniProt P10253).
T4 construct: The lysates were used as a source for wild type (wt) lysosomal alpha-glucosidase; endogenous in cells; host or cells: HL60 (ECACC No. 98070106) lysate
As to the kind of experiment: alpha-glucosidase activity assay in HL60 lysate (4MU-α-D-glc).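 Further: fluorometric rate of 4MU product release read at 360 nm excitation and 450 nm emission, reactions run at 37 °C in citric phosphate buffer.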 The following applies: at a concentration of 100 uM, 0.5 mM 4MU-α-D-glc, pH 4.5.

A word on the inhibition: it is the drop in the measured response relative to a control, in per cent. Low values mean little suppression, high ones strong suppression. `OC[C@H]1N[C@H](CO)[C@H](O)C(O)[C@H]1O` (stereo partly drawn) [Compound 189, (2R,3S,5S,6R)-2,6-bis(hydroxymethyl)piperidine-3,4,5-triol]: the inhibition at 100 µM in test [1] is > 50%.

For the compound `O[C@@H]1[C@@H](O)[C@H](O)[C@]2(O)CC[C@H]1N2` [Compound 21, (1R,2S,3R,4S,5R)-8-azabicyclo[3.2.1]octane-1,2,3,4-tetraol], the inhibition at 100 µM in test [1] and in test [2] was > 50% throughout. Take `OC[C@H]1NC[C@H](O)[C@@H](O)[C@H]1O` [Compound 215, (2R,3S,4R,5S)-2-(hydroxymethyl)piperidine-3,4,5-triol]: in test [1], the inhibition at 100 µM is > 50%. Take `N[C@@H]1CN(Cc2ccccc2)[C@H](CO)[C@H]1O` [Compound 370, (2R,3S,4R)-4-amino-1-benzyl-2-(hydroxymethyl)pyrrolidin-3-ol]: the “Promotion of glycosidase activity: α-D-glucosidase (Bacillus sterothermophilus)” value (from here on “Promotion of glycosidase activity”) in test [3] was 81 % increase in absorbance compared to the water controls. For the same compound, in test [4], the activation at 714 µM was found to be 43%.

For the compound `OC[C@H]1NC[C@@H](O)[C@H](O)[C@H]1O` [Compound 447, (2R,3S,4S,5R)-2-(hydroxymethyl)piperidine-3,4,5-triol], in test [1], the inhibition at 100 µM was > 50%. On to `N[C@@H]1CN[C@H](CO)C1` [Compound 344, ((2S,4S)-4-aminopyrrolidin-2-yl)methanol], for which the “Promotion of glycosidase activity” value in test [3] is 71 % increase in absorbance compared to the water controls. On the same count and under the same terms, next, `CCCCOC(=O)[C@@H]1[C@@H](O)[C@H](O)[C@@H](O)CN1CCCC` [Compound 205, (2S,3R,4R,5S)-butyl 1-butyl-3,4,5-trihydroxypiperidine-2-carboxylate]: 60 % increase in absorbance compared to the water controls. Consider `CCCCCCCCCN1C[C@H](NC(C)=O)[C@@H](O)[C@@H]1CO` [Compound 338, N-((3S,4R,5S)-4-hydroxy-5-(hydroxymethyl)-1-nonylpyrrolidin-3-yl)acetamide], for which the “Promotion of glycosidase activity” value in test [3] is reported as 170 % increase in absorbance compared to the water controls. Moreover, the activation at 714 µM in test [4] was 35%. As to `C[C@@H]1N[C@@H](CO)[C@H](O)[C@H](O)[C@H]1O` [Compound 269, (2S,3S,4R,5S,6S)-2-(hydroxymethyl)-6-methylpiperidine-3,4,5-triol], in test [1], the inhibition at 100 µM was > 50%. As to `CCCCN1C[C@@H](NC(C)=O)C[C@H]1CO` [Compound 350, N-((3S,5S)-1-butyl-5-(hydroxymethyl)pyrrolidin-3-yl)acetamide], the “Promotion of glycosidase activity” value in test [3] is given as 160 % increase in absorbance compared to the water controls. Further, the activation at 714 µM in test [4] stood at 38%. On to `OC[C@@H]1[C@@H](O)[C@H](O)[C@@H](O)CN1CCCOc1ccccc1` [Compound 288, (2R,3R,4R,5S)-2-(hydroxymethyl)-1-(3-phenoxypropyl)piperidine-3,4,5-triol], for which the inhibition at 100 µM in test [2] and in test [5] was > 50% each time. Consider `CN1C[C@@H](O)[C@H](O)[C@@H](O)C1` [Compound 253, (3R,4r,5S)-1-methylpiperidine-3,4,5-triol], for which the “Promotion of glycosidase activity” value in test [3] is 56 % increase in absorbance compared to the water controls. In the case of `CNC(=O)[C@H]1N[C@H](CO)[C@@H](O)[C@H](O)[C@@H]1O` [Compound 246, (2S,3R,4S,5R,6R)-3,4,5-trihydroxy-6-(hydroxymethyl)-N-methylpiperidine-2-carboxamide], the inhibition at 100 µM in test [1] was > 50%.

As for `O[C@H]1[C@H](O)[C@@H](O)CN2CC[C@H](O)[C@H]12` [Compound 104, (1S,6S,7R,8R,8aR)-octahydroindolizine-1,6,7,8-tetraol], the inhibition at 100 µM in test [2] and in test [5] was > 50% in each case.

Turning to `C=CCC[C@H]1N[C@@H](CO)[C@H](O)[C@@H](O)[C@@H]1O` [Compound 380, (2R,3R,4S,5S,6S)-2-(but-3-enyl)-6-(hydroxymethyl)piperidine-3,4,5-triol], the inhibition at 100 µM in test [1] was > 50%. `CN1C[C@H](O)[C@@H](O)[C@H](O)[C@H]1CO` [Compound 3, (2R,3R,4R,5S)-2-(hydroxymethyl)-1-methylpiperidine-3,4,5-triol]: the inhibition at 100 µM in test [2] and in test [5] was > 50% in each case. On to `C[C@H]1N[C@H](CO)[C@H](O)[C@H](O)[C@H]1O` [Compound 263, (2R,3S,4R,5S,6R)-2-(hydroxymethyl)-6-methylpiperidine-3,4,5-triol], for which the inhibition at 100 µM in test [1] was > 50%. On to `OCCN1[C@H](CO)[C@H](O)[C@H](O)[C@H]1CO` [Compound 168, (2R,3R,4S,5R)-1-(2-hydroxyethyl)-2,5-bis(hydroxymethyl)pyrrolidine-3,4-diol], for which the inhibition at 100 µM in test [1] was > 50%.

Take `CC(=O)N[C@H]1C[C@@H](CO)N(CCO)C1` [Compound 347, N-((3S,5S)-1-(2-hydroxyethyl)-5-(hydroxymethyl)pyrrolidin-3-yl)acetamide]: the “Promotion of glycosidase activity” value in test [3] is 68 % increase in absorbance compared to the water controls. For the compound `C[C@H]1N[C@@H](CO)[C@H](O)[C@H](O)[C@H]1O` [Compound 264, (2S,3S,4R,5S,6R)-2-(hydroxymethyl)-6-methylpiperidine-3,4,5-triol], the inhibition at 100 µM in test [1] was > 50%. Still for that read-out and setting: the result for `C[C@H]1NC[C@H](O)[C@@H](O)[C@H]1O` [Compound 258, (2R,3S,4R,5S)-2-methylpiperidine-3,4,5-triol] reads > 50%. Take `N[C@H]1CN(Cc2ccccc2)[C@@H](CO)[C@@H]1O` [Compound 312, (2S,3R,4S)-4-amino-1-benzyl-2-(hydroxymethyl)pyrrolidin-3-ol]: the “Promotion of glycosidase activity” value in test [3] is reported as 52 % increase in absorbance compared to the water controls. Further, in test [4], the activation at 714 µM was determined as 30%. For `OC[C@@H]1[C@@H](O)[C@H](O)[C@@H](O)CN1Cc1ccc(-c2ccccc2)cc1` [Compound 524, (2R,3R,4R,5S)-1-(biphenyl-4-ylmethyl)-2-(hydroxymethyl)piperidine-3,4,5-triol], the inhibition at 100 µM in test [2] and in test [5] was > 50% in each case.

`O=C1N[C@H](CO)[C@@H](O)[C@H](O)[C@@H]1O` [Compound 112, (3S,4S,5R,6R)-3,4,5-trihydroxy-6-(hydroxymethyl)piperidin-2-one]: the inhibition at 100 µM in test [1] is > 50%.

(Values after patent publication US20110237538A1, “TREATMENT OF LYSOSOMAL STORAGE DISORDERS AND OTHER PROTEOSTATIC DISEASES” (SUMMIT CORPORATION PLC, priority 2008, published 2011).)
